Measured values taken from patent US20190374526A1, “Substituted Heterocyclic Compounds as Inhibitors of PRDM9” (Merck Sharp & Dohme Corp., priority 2018, published 2019).

biological target: T1, hPRDM9 (amino acids 195-385) (Homo sapiens, UniProt Q9NQV7); assay: PRDM9 biochemical assay (radiometric, 3[H] methyl transfer from SAM to biotinylated histone H3 peptide); conditions: 1 nM hPRDM9, 1 μM biotinylated H3(1-25)K4 peptide, 5 μM 3[H]-SAM, 55 μM un-labeled SAM, 25° C., 30 minutes
T1 construct: 1.25 nM hPRDM9 (amino acids 195-385)
T1 sequence (Q9NQV7 195-385): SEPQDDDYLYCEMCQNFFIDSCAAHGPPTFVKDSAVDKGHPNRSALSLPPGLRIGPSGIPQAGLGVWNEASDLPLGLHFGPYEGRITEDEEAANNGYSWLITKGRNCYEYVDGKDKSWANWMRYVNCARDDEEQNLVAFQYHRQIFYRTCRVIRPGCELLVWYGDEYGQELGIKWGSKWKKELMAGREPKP
Protocol: The PRDM9 biochemical assay was carried out using a radiometric format involving the transfer of ^3[H] methyl group from S-adenosyl methionine (SAM) to a biotinylated histone H3 peptide (H3(1-25)K4). 10 mM compounds in DMSO were diluted 20 fold in assay buffer (10 mM Tris-HCl, pH 8.5, 10 mM DTT, and 0.01% Triton X-100) before adding […] to a well in a 384 well polypropylene microplate plate and adding 8 μl of reaction mix (1.25 nM hPRDM9 (amino acids 195-385), 1.25 μM biotinylated H3 peptide in assay buffer). The ^3[H]-SAM and cold SAM stock solutions were diluted to 50 μM and 550 μM respectively in assay buffer before aliquoting 1 μl of 50 μM ^3[H]-SAM, 550 μM SAM into each well to initiate the reaction. The assay was performed at 25° C. at the final concentrations of 1 nM hPRDM9, 1 μM peptide, 5 μM ^3[H]-SAM, and 55 μM un-labeled SAM in assay buffer. The reaction was quenched after 30 minutes by adding 25 μl 7.5 M Guanidine-HCl. Quenched reactions were transferred to streptavidin coated Flashplates, diluted two fold in assay buffer, incubated for 1 hour, and read on a Perkin Elmer Topcount instrument. Compound activity was expressed relative to activity of 0.5% (v/v) DMSO treated samples and fit to a four parameter logistic equation to determine IC50 values.

Compound | IC50
Cc1cc(N2CC3(CCCN(c4nc(-c5cc(Cl)cc(Cl)c5)co4)C3)C2)ccn1 [Compound 118] | 16.6 µM
Cc1cc(N2CC3(CCCN(c4onc(-c5cc(Cl)cc(Cl)c5)c4-c4ccoc4)C3)C2)ccn1 [Compound 122, 3-(3,5-dichlorophenyl)-4-(furan-3-yl)-5-(2-(2-methylpyridin-4-yl)-2,6-diazaspiro[3.5]nonan-6-yl)isoxazole] | 30.6 µM
COc1ccccc1-c1c(-c2cc(Cl)cc(Cl)c2)noc1N1CCCC2(CN(c3ccnc(C)c3)C2)C1 [Compound 124] | 17.6 µM
COc1ccc(-c2c(-c3cc(Cl)cc(Cl)c3)noc2N2CCCC3(CN(c4ccnc(C)c4)C3)C2)c(OC)c1 [Compound 125] | 25.1 µM
Cc1cc(N2CC3(CCCN(CC(C)C(=O)c4cc(Cl)cc(Cl)c4)C3)C2)ccn1 (centres unmarked) [Compound 127, 1-(3,5-dichlorophenyl)-2-methyl-3-(2-(2-methylpyridin-4-yl)-2,6-diazaspiro[3.5]nonan-6-yl)propan-1-one] | 26.9 µM
Cc1cc(N2CC3(CCCN(c4cc(-c5cccc(F)c5F)n[nH]4)C3)C2)ccn1 [Compound 128, 6-(3-(2,3-difluorophenyl)-1H-pyrazol-5-yl)-2-(2-methylpyridin-4-yl)-2,6-diazaspiro[3.5]nonane] | 23.7 µM
COC(=O)c1cccc(-c2cc(N3CCCC4(CN(c5ccnc(C)c5)C4)C3)on2)c1 [Compound 129, methyl 3-(5-(2-(2-methylpyridin-4-yl)-2,6-diazaspiro[3.5]nonan-6-yl)isoxazol-3-yl)benzoate] | 19.1 µM
COC(=O)c1cccc(-c2cc(N3CCCC4(CN(c5ccnc(C)c5)C4)C3)[nH]n2)c1 [Compound 130, methyl 3-(5-(2-(2-methylpyridin-4-yl)-2,6-diazaspiro[3.5]nonan-6-yl)-1H-pyrazol-3-yl)benzoate] | 24.3 µM
Cc1cc(N2CC3(CCCN(c4cc(-c5ccc(F)c(F)c5)n[nH]4)C3)C2)ccn1 [Compound 131, 6-(3-(3,4-difluorophenyl)-1H-pyrazol-5-yl)-2-(2-methylpyridin-4-yl)-2,6-diazaspiro[3.5]nonane] | 23.1 µM
Cc1cc(N2CC3(CCCN(c4cc(-c5cccc(F)c5F)no4)C3)C2)ccn1 [Compound 133, 3-(2,3-difluorophenyl)-5-(2-(2-methylpyridin-4-yl)-2,6-diazaspiro[3.5]nonan-6-yl)isoxazole] | 17 µM
Cc1cc(N2CC3(CCCN(c4ccc5c(Cl)cc(Cl)cc5n4)C3)C2)ccn1 [Compound 134, 5,7-dichloro-2-(2-(2-methylpyridin-4-yl)-2,6-diazaspiro[3.5]nonan-6-yl)quinoline] | 34.6 µM
Cc1cc(N2CC3(CCCN(c4cc(-c5ccc(F)c(C(F)(F)F)c5)n[nH]4)C3)C2)ccn1 [Compound 135, 6-(3-(4-fluoro-3-(trifluoromethyl)phenyl)-1H-pyrazol-5-yl)-2-(2-methylpyridin-4-yl)-2,6-diazaspiro[3.5]nonane] | 21.1 µM
Cc1cc(N2CC3(CCCN(c4cc(-c5cc(Cl)cc(Cl)c5)ccn4)C3)C2)ccn1 [Compound 137, 6-(4-(3,5-dichlorophenyl)pyridin-2-yl)-2-(2-methylpyridin-4-yl)-2,6-diazaspiro[3.5]nonane] | 21.5 µM
Cc1cc(N2CC3(CCCN(c4nc(Cc5ccc(F)cc5)no4)C3)C2)ccn1 [Compound 143] | ≥ 50 µM
Cc1cc(N2CC3(CCCN(c4nc(-c5ccc(Cl)cc5)no4)C3)C2)ccn1 [Compound 144] | 42.3 µM
Cc1cc(N2CC3(CCCN(c4nc(C5CC5)no4)C3)C2)ccn1 [Compound 146] | ≥ 50 µM
Cc1cc(N2CC3(CCCN(c4nc(-c5ccccc5Cl)no4)C3)C2)ccn1 [Compound 148] | ≥ 50 µM
COc1cccc(-c2noc(N3CC4(CCC3=O)CCN(c3ccnc(C)c3)CC4)n2)c1 [Compound 153, 2-(3-(3-methoxyphenyl)-1,2,4-oxadiazol-5-yl)-9-(2-methylpyridin-4-yl)-2,9-diazaspiro[5.5]undecan-3-one] | 44.8 µM
Cc1cc(NC2CC23CCN(c2nc(-c4cc(Cl)cc(Cl)c4)no2)C3)ccn1 (centres unmarked) [Compound 157] | 31 µM
COc1cc(OC)cc(-c2noc(N3CCC4(CC5CCC(C4)N5c4ccnc(C)c4)C3)n2)c1 (centres unmarked) [Compound 158] | 3.81 µM
COc1cc(OC)cc(-c2noc(N3CCN(C)C4(CCN(c5ccnc(C)c5)CC4)C3)n2)c1 [Compound 161] | 0.049 µM

Continued, values first:

IC50 | Compound
0.095 µM | COc1cc(OC)cc(-c2noc(N3CCN(CCO)C4(CCN(c5ccnc(C)c5)CC4)C3)n2)c1 [Compound 98]
0.07 µM | COc1cc(OC)cc(-c2noc(N3CCN(S(C)(=O)=O)C4(CCN(c5ccnc(C)c5)CC4)C3)n2)c1 [Compound 99]
0.14 µM | COc1cc(OC)cc(-c2noc(N3CCN(c4ccccc4)C4(CCN(c5ccnc(C)c5)CC4)C3)n2)c1 [Compound 100]
0.45 µM | COc1cc(OC)cc(-c2noc(N3CCN(C(=O)N(C)C)C4(CCN(c5ccnc(C)c5)CC4)C3)n2)c1 [Compound 101]
4.4 µM | COc1cc(OC)cc(-c2noc(N3CCN(C)C4(CCN(c5ccnc6ccccc56)CC4)C3)n2)c1 [Compound 102]
0.072 µM | Cc1cc(N2CC3(CCCN(c4nc(-c5cc(Cl)cc(Cl)c5)no4)C3)C2)ccn1 [Compound 116, 3-(3,5-dichlorophenyl)-5-(2-(2-methylpyridin-4-yl)-2,6-diazaspiro[3.5]nonan-6-yl)-1,2,4-oxadiazole]
2 µM | Cc1cc(N2CC3(CCCN(c4nc(-c5cccc(Br)c5)no4)C3)C2)ccn1 [Compound 117]
0.3 µM | Cc1cc(N2CC3(C2)CN(c2nc(-c4cc(Cl)cc(Cl)c4)no2)CCO3)ccn1 [Compound 119]
12.2 µM | Cc1cc(N2CC3(CCCN(c4cncc(-c5cc(Cl)cc(Cl)c5)n4)C3)C2)ccn1 [Compound 120]
13.7 µM | Cc1cc(N2CC3(CCCN(c4onc(-c5cc(Cl)cc(Cl)c5)c4Br)C3)C2)ccn1 [Compound 121, 4-bromo-3-(3,5-dichlorophenyl)-5-(2-(2-methylpyridin-4-yl)-2,6-diazaspiro[3.5]nonan-6-yl)isoxazole]
6.67 µM | Cc1cc(N2CC3(CCCN(c4onc(-c5cc(Cl)cc(Cl)c5)c4-c4ccc(N)cc4)C3)C2)ccn1 [Compound 123]
11.1 µM | Cc1cc(N2CC3(CCCN(c4ccn(-c5cc(Cl)cc(Cl)c5)n4)C3)C2)ccn1 [Compound 126, 6-(1-(3,5-dichlorophenyl)-1H-pyrazol-3-yl)-2-(2-methylpyridin-4-yl)-2,6-diazaspiro[3.5]nonane]
5.46 µM | Cc1cc(N2CC3(CCCN(c4ccnc(-c5cc(Cl)cc(Cl)c5)c4)C3)C2)ccn1 [Compound 132, 6-(2-(3,5-dichlorophenyl)pyridin-4-yl)-2-(2-methylpyridin-4-yl)-2,6-diazaspiro[3.5]nonane]
16.5 µM | Cc1cc(N2CC3(CCCN(c4cc(-c5cc(F)cc(Cl)c5)n[nH]4)C3)C2)ccn1 [Compound 136, 6-(3-(3-chloro-5-fluorophenyl)-1H-pyrazol-5-yl)-2-(2-methylpyridin-4-yl)-2,6-diazaspiro[3.5]nonane]
4.8 µM | Cc1cc(N2CC3(CCCN(c4nc(-c5ccccc5)no4)C3)C2)ccn1 [Compound 138, 5-(2-(2-methylpyridin-4-yl)-2,6-diazaspiro[3.5]nonan-6-yl)-3-phenyl-1,2,4-oxadiazole]
0.393 µM | COc1cc(OC)cc(-c2noc(N3CCOC4(CN(c5ccnc(C)c5)C4)C3)n2)c1 [Compound 139]
0.203 µM | COc1cccc(-c2noc(N3CCCC4(CN(c5ccnc(C)c5)C4)C3)n2)c1 [Compound 142]
4.7 µM | COc1ccc(-c2noc(N3CCCC4(CN(c5ccnc(C)c5)C4)C3)n2)cc1OC [Compound 145]
0.263 µM | Cc1cc(N2CC3(CCCN(c4nc(-c5cccc(Cl)c5)no4)C3)C2)ccn1 [Compound 147]
0.066 µM | COc1cc(OC)cc(-c2noc(N3CC4(CCC3=O)CCN(c3ccnc(C)c3)CC4)n2)c1 [Compound 150]
3.45 µM | Cc1cc(NC2CC3(CCN(c4nc(-c5cc(Cl)cc(Cl)c5)no4)C3)C2)ccn1 (centres unmarked) [Compound 154, 6-(3-(3,5-dichlorophenyl)-1,2,4-oxadiazol-5-yl)-N-(2-methylpyridin-4-yl)-6-azaspiro[3.4]octan-2-amine]
3.46 µM | Cc1cc(NC2CC3(CCN(c4nc(-c5cc(Cl)cc(Cl)c5)no4)C3)C2)ccn1 (centres unmarked) [Compound 155]
16 µM | Cc1cc(NC2CC23CCN(c2nc(-c4cc(Cl)cc(Cl)c4)no2)C3)ccn1 (centres unmarked) [Compound 156]
0.35 µM | COc1cc(OC)cc(-c2noc(N3CCO[C@]4(C[C@H]5CC[C@@H](C4)N5c4ccnc(C)c4)C3)n2)c1 [Compound 160]
0.47 µM | COc1cc(OC)cc(-c2nnc(N3CCN(C)C4(CCN(c5ccnc(C)c5)CC4)C3)o2)c1 [Compound 162]
3.08 µM | COc1cc(OC)cc(-c2noc(N3CC(C)(C)OC4(CN(c5ccnc(C)c5)C4)C3)n2)c1 [Compound 163]
